Laboratory results taken from PubChem BioAssay (NCI).
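Protocol summary: plate cells (96-well), add compound at 5 concentrations, incubate 48 h, interpolate endpoints linearly. Abbreviation: GI50, concentration required for 50% inhibition of growth. The concentration for full growth arrest is given as TGI.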

Experiments:
Experiment in all cases: DTP human tumour cell line panel, 48 h
HT29 colon = system: HT29 colon
SNB-75 CNS = system: SNB-75 CNS
SK-MEL-2 melanoma = system: SK-MEL-2 melanoma
KM12 colon = system: KM12 colon
ACHN renal = system: ACHN renal
HOP-92 NSCLC = system: HOP-92 NSCLC
BT-549 breast = system: BT-549 breast
NCI/ADR-RES ovarian = system: NCI/ADR-RES ovarian
MOLT-4 leukemia = system: MOLT-4 leukemia
NCI-H522 lung = system: NCI-H522 lung
SK-OV-3 ovarian = system: SK-OV-3 ovarian
HCT-15 colon = system: HCT-15 colon
RXF 393 renal = system: RXF 393 renal
OVCAR-8 ovarian = system: OVCAR-8 ovarian
U251 CNS = system: U251 CNS
SNB-19 CNS = system: SNB-19 CNS
MDA-MB-231 breast = system: MDA-MB-231 breast
M14 melanoma = system: M14 melanoma
NCI-H460 lung = system: NCI-H460 lung
786-0 renal = system: 786-0 renal
OVCAR-3 ovarian = system: OVCAR-3 ovarian
SN12C renal = system: SN12C renal
UACC-257 melanoma = system: UACC-257 melanoma
NCI-H226 lung = system: NCI-H226 lung
SF-539 CNS = system: SF-539 CNS
SR leukemia = system: SR leukemia
LOX IMVI melanoma = system: LOX IMVI melanoma
DU-145 prostate = system: DU-145 prostate
NCI-H23 lung = system: NCI-H23 lung
IGROV1 ovarian = system: IGROV1 ovarian
K-562 leukemia = system: K-562 leukemia
A498 renal = system: A498 renal
HS 578T breast = system: HS 578T breast
HCC-2998 colon = system: HCC-2998 colon
SF-295 CNS = system: SF-295 CNS
TK-10 renal = system: TK-10 renal
SF-268 CNS = system: SF-268 CNS
A549 NSCLC = system: A549 NSCLC
T-47D breast = system: T-47D breast
OVCAR-5 ovarian = system: OVCAR-5 ovarian
HL-60(TB) leukemia = system: HL-60(TB) leukemia
UACC-62 melanoma = system: UACC-62 melanoma
OVCAR-4 ovarian = system: OVCAR-4 ovarian
MCF7 breast = system: MCF7 breast
MDA-MB-435 = system: MDA-MB-435
SK-MEL-28 melanoma = system: SK-MEL-28 melanoma
MALME-3M melanoma = system: MALME-3M melanoma
PC-3 prostate = system: PC-3 prostate
CAKI-1 renal = system: CAKI-1 renal
HCT-116 colon = system: HCT-116 colon
CCRF-CEM leukemia = system: CCRF-CEM leukemia
RPMI-8226 leukemia = system: RPMI-8226 leukemia
COLO 205 colon = system: COLO 205 colon
SW-620 colon = system: SW-620 colon
HOP-62 NSCLC = system: HOP-62 NSCLC
SK-MEL-5 melanoma = system: SK-MEL-5 melanoma
UO-31 renal = system: UO-31 renal
EKVX NSCLC = system: EKVX NSCLC

Compound: CN1CC[C@@H](NC(=O)Nc2ccc(C#N)cc2)C[C@@H]1c1nc2ccccc2[nH]1
- GI50 (HT29 colon): > 74.2 µM
- TGI (HT29 colon): > 100 µM
- GI50 (SNB-75 CNS): > 73.2 µM
- TGI (SNB-75 CNS): > 100 µM
- GI50 (SK-MEL-2 melanoma): > 100 µM
- TGI (SK-MEL-2 melanoma): > 100 µM
- GI50 (KM12 colon): > 100 µM
- TGI (KM12 colon): > 100 µM
- GI50 (ACHN renal): > 86.5 µM
- TGI (ACHN renal): > 100 µM
- GI50 (HOP-92 NSCLC): 35.9 µM
- TGI (HOP-92 NSCLC): > 100 µM
- GI50 (BT-549 breast): > 100 µM
- TGI (BT-549 breast): > 100 µM
- GI50 (NCI/ADR-RES ovarian): > 49.8 µM
- TGI (NCI/ADR-RES ovarian): > 86.6 µM
- GI50 (MOLT-4 leukemia): 55.6 µM
- TGI (MOLT-4 leukemia): > 100 µM
- GI50 (NCI-H522 lung): > 100 µM
- TGI (NCI-H522 lung): > 100 µM
- GI50 (SK-OV-3 ovarian): > 100 µM
- TGI (SK-OV-3 ovarian): > 100 µM
- GI50 (HCT-15 colon): > 100 µM
- TGI (HCT-15 colon): > 100 µM
- GI50 (RXF 393 renal): 40.5 µM
- TGI (RXF 393 renal): > 100 µM
- GI50 (OVCAR-8 ovarian): > 100 µM
- TGI (OVCAR-8 ovarian): > 100 µM
- GI50 (U251 CNS): > 100 µM
- TGI (U251 CNS): > 100 µM
- GI50 (SNB-19 CNS): > 100 µM
- TGI (SNB-19 CNS): > 100 µM
- GI50 (MDA-MB-231 breast): > 100 µM
- TGI (MDA-MB-231 breast): > 100 µM
- GI50 (M14 melanoma): > 100 µM
- TGI (M14 melanoma): > 100 µM
- GI50 (NCI-H460 lung): > 100 µM
- TGI (NCI-H460 lung): > 100 µM
- GI50 (786-0 renal): > 100 µM
- TGI (786-0 renal): > 100 µM
- GI50 (OVCAR-3 ovarian): > 100 µM
- TGI (OVCAR-3 ovarian): > 100 µM
- GI50 (SN12C renal): > 78.9 µM
- TGI (SN12C renal): > 100 µM
- GI50 (UACC-257 melanoma): > 100 µM
- TGI (UACC-257 melanoma): > 100 µM
- GI50 (NCI-H226 lung): > 100 µM
- TGI (NCI-H226 lung): > 100 µM
- GI50 (SF-539 CNS): > 100 µM
- TGI (SF-539 CNS): > 100 µM
- GI50 (SR leukemia): 48.2 µM
- TGI (SR leukemia): > 100 µM
- GI50 (LOX IMVI melanoma): > 42.5 µM
- TGI (LOX IMVI melanoma): > 59.5 µM
- GI50 (DU-145 prostate): > 100 µM
- TGI (DU-145 prostate): > 100 µM
- GI50 (NCI-H23 lung): > 42.3 µM
- TGI (NCI-H23 lung): > 60.8 µM
- GI50 (IGROV1 ovarian): > 100 µM
- TGI (IGROV1 ovarian): > 100 µM
- GI50 (K-562 leukemia): > 100 µM
- TGI (K-562 leukemia): > 100 µM
- GI50 (A498 renal): > 27.4 µM
- TGI (A498 renal): > 65.7 µM
- GI50 (HS 578T breast): > 100 µM
- TGI (HS 578T breast): > 100 µM
- GI50 (HCC-2998 colon): > 41.3 µM
- TGI (HCC-2998 colon): > 56.4 µM
- GI50 (SF-295 CNS): > 100 µM
- TGI (SF-295 CNS): > 100 µM
- GI50 (TK-10 renal): > 100 µM
- TGI (TK-10 renal): > 100 µM
- GI50 (SF-268 CNS): > 100 µM
- TGI (SF-268 CNS): > 100 µM
- GI50 (A549 NSCLC): > 100 µM
- TGI (A549 NSCLC): > 100 µM
- GI50 (T-47D breast): > 70.4 µM
- TGI (T-47D breast): > 100 µM
- GI50 (OVCAR-5 ovarian): > 100 µM
- TGI (OVCAR-5 ovarian): > 100 µM
- GI50 (HL-60(TB) leukemia): > 100 µM
- TGI (HL-60(TB) leukemia): > 100 µM
- GI50 (UACC-62 melanoma): 98.8 µM
- TGI (UACC-62 melanoma): > 100 µM
- GI50 (OVCAR-4 ovarian): 100 µM
- TGI (OVCAR-4 ovarian): > 100 µM
- GI50 (MCF7 breast): 98.8 µM
- TGI (MCF7 breast): > 100 µM
- GI50 (MDA-MB-435): > 100 µM
- TGI (MDA-MB-435): > 100 µM
- GI50 (SK-MEL-28 melanoma): > 100 µM
- TGI (SK-MEL-28 melanoma): > 100 µM
- GI50 (MALME-3M melanoma): > 100 µM
- TGI (MALME-3M melanoma): > 100 µM
- GI50 (PC-3 prostate): > 100 µM
- TGI (PC-3 prostate): > 100 µM
- GI50 (CAKI-1 renal): > 100 µM
- TGI (CAKI-1 renal): > 100 µM
- GI50 (HCT-116 colon): > 87.1 µM
- TGI (HCT-116 colon): > 100 µM
- GI50 (CCRF-CEM leukemia): 97.4 µM
- TGI (CCRF-CEM leukemia): > 100 µM
- GI50 (RPMI-8226 leukemia): > 100 µM
- TGI (RPMI-8226 leukemia): > 100 µM
- GI50 (COLO 205 colon): > 80.6 µM
- TGI (COLO 205 colon): > 100 µM
- GI50 (SW-620 colon): > 100 µM
- TGI (SW-620 colon): > 100 µM
- GI50 (HOP-62 NSCLC): > 100 µM
- TGI (HOP-62 NSCLC): > 100 µM
- GI50 (SK-MEL-5 melanoma): > 57.7 µM
- TGI (SK-MEL-5 melanoma): > 100 µM
- GI50 (UO-31 renal): > 78.1 µM
- TGI (UO-31 renal): > 100 µM
- GI50 (EKVX NSCLC): > 100 µM
- TGI (EKVX NSCLC): > 100 µM
